By IC50 is commonly meant the concentration that inhibits the measured activity by half. Higher therefore signals a need for much substance.

“And” between values parts separate entries of the source, which are not always exact repeats. Equal values may be shown once.

Experiment [1] has as its target T1, PI3Kδ (Homo sapiens, UniProt O00329).
T1 construct: purchased Reaction Biology Corporation
The experiment in a line: PI3Kδ kinase assay (HTRF, PIP3 detection). The format is biochemical. The settings on record: for IC50: 10 dose IC50, 10 μM ATP; for PI3Kδ @ 0.1 μM (% Inh): 0.1 μM compound; for PI3Kδ @ 0.1 μM (% Inh) / PI3Kδ @ 1 μM (% Inh): 10 μM ATP; for PI3Kδ @ 1 μM (% Inh): 1 μM compound. From the text:
(§1) Compounds of the invention were profiled in a 10 dose IC50 panel against BTK and PI3Kδ, both provided by Reaction Biology Corporation.
PI3Kδ assay: The PIP3 product is detected by displacement of biotin-PIP3 from an energy transfer complex consisting of Europium labeled anti-GST monoclonal antibody, a GST-tagged pleckstrin homology (PH) domain, biotinylated PIP3 and Streptavidin-Allophycocyanin (APC). […] The PIP3 product formed by PI 3-Kinase(h) activity displaces biotin-PIP3 from the complex resulting in a loss of energy transfer and thus a decrease in signal. This is a 3-step reaction: First, the kinase reaction with PIP2 substrate is carried out in the presence of ATP (10 μM), and the reaction is quenched with stop Solution, and then finally detect by adding Detection Mixture followed by incubation (10 min). Reaction procedure: 1) Prepare substrate in freshly prepared Reaction Buffer. 2) Deliver kinase into the substrate solution and gently mix. 3) Deliver compounds in 100% DMSO (1 μM) into the kinase reaction mixture by Acoustic technology (Echo550; nanoliter range), incubate for 10 min at RT. 4) Deliver ATP into the reaction mixture to initiate the reaction. 5) Incubate for 30 min at 30° C. 6) Quench the reaction with Stop Solution. 7) Add Detection Mixture, and incubate for overnight. […] The emission ratio is converted into μM PIP3 production based on PIP3 standard curves. The nonlinear regression to obtain the standard curve and IC50 values are performed using Graphpad Prism software. Assay Buffer: HEPES 50 mM (pH7.0), NaN3 0.02%, BSA 0.01%, Orthovanadate 0.1 mM, 1% DMSO. Detection buffer: HEPES 10 mM (pH7.0), BSA 0.02%, KF 0.16 M, EDTA 4 mM. Substrate: 10 μM PIP2 substrate (PI(4,5)P2).

The target in experiment [2] is T2, BTK (Homo sapiens, UniProt Q06187).
T2 construct: purchased Reaction Biology Corporation
The experiment in a line: BTK kinase assay (HotSpot, 33P ATP). To be noted: for IC50: 10 dose IC50, 10 μM ATP; for BTK @ 0.1 μM (% Inh): 0.1 μM compound; for BTK @ 0.1 μM (% Inh) / BTK @ 1 μM (% Inh): 10 μM ATP; for BTK @ 1 μM (% Inh): 1 μM compound. The format is biochemical. The method, then: as §1
BTK assay: In vitro profiling protein kinases was performed using the “HotSpot” assay platform. Briefly, specific kinase/substrate pairs along with required cofactors were prepared in reaction buffer. Compounds were prepared as 10 mM stock solutions in DMSO. Compounds were delivered into the reaction, followed 15-20 minutes later by addition of a mixture of ATP (Sigma, St. Louis Mo.) and ^33P ATP (Perkin Elmer, Waltham Mass.) to a final concentration of 10 μM. […] IC50 values and curve fits were obtained using Prism (GraphPad Software). Buffer Conditions: 20 mM Hepes (pH 7.5), 10 mM MgCl2, 1 mM EGTA, 0.02% Brij35, 0.02 mg/mL BSA, 0.1 mM Na3VO4, 2 mM DTT, 1% DMSO.

T1 sequence (O00329 whole entry): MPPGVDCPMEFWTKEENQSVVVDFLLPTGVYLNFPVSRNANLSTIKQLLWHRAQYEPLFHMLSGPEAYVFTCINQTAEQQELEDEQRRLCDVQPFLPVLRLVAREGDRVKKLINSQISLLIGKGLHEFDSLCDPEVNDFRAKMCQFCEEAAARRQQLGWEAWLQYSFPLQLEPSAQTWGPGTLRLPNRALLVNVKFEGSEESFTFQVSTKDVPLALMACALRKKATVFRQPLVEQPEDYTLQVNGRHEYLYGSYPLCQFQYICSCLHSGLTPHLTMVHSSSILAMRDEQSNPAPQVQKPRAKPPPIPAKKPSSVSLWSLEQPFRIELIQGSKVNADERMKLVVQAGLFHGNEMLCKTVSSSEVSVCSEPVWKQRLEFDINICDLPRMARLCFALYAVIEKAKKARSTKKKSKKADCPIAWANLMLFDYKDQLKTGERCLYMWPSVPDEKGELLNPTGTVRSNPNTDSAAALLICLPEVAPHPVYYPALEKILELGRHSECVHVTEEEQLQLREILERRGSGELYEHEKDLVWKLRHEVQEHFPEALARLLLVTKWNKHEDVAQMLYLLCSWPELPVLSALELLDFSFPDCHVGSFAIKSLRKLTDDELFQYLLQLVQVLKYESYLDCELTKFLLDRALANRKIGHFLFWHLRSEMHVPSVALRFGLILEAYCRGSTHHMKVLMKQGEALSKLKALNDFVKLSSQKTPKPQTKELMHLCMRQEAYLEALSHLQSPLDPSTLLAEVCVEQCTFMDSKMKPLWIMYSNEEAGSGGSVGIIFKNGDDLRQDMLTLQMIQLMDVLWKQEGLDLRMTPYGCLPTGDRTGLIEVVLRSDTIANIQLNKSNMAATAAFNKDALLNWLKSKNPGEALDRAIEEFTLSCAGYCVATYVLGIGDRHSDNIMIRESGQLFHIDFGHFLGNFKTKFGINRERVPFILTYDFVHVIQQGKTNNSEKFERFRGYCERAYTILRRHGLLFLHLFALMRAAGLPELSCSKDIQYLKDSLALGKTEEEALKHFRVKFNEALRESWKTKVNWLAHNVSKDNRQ
T1 sequence (P27986 whole entry partner): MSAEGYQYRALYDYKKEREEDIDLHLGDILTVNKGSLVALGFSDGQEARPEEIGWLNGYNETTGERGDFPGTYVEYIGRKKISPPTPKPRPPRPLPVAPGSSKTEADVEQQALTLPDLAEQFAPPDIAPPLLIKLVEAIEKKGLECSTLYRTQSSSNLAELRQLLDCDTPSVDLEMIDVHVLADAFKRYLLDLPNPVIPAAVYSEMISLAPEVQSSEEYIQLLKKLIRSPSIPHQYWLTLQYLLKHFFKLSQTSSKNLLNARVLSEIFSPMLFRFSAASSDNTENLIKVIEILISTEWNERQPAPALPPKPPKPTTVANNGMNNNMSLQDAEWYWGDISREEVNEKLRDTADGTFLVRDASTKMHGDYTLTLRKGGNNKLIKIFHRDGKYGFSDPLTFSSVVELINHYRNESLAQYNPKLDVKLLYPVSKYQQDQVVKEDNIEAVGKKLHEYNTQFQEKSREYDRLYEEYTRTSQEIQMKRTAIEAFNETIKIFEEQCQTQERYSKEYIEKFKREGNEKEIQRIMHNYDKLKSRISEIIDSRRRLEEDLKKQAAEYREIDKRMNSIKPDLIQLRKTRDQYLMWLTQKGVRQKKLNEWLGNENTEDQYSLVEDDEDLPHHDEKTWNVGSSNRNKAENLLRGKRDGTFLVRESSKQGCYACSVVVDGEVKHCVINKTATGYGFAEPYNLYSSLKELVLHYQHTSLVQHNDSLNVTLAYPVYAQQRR
T2 sequence (Q06187 whole entry): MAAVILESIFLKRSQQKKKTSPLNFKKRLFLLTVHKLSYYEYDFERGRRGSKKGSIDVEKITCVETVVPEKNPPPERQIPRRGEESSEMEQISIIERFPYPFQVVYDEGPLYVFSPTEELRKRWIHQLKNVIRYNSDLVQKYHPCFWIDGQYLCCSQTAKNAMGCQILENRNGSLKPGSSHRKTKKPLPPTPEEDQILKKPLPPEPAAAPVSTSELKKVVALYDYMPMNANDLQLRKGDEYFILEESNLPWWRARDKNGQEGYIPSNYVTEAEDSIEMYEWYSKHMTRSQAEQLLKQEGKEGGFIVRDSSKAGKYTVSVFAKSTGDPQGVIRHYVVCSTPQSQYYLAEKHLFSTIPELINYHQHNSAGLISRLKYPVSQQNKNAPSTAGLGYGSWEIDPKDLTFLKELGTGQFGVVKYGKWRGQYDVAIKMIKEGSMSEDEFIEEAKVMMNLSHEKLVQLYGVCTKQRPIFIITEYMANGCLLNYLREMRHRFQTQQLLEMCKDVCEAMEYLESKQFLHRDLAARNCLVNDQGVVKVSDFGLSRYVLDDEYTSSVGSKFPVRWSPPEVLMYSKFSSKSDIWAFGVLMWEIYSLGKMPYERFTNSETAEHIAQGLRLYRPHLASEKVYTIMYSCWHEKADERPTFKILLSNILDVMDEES

As for `COc1ccc(-c2nn(C3CCc4ccccc4C3)c3ncnc(N)c23)cc1F` (racemic) [Compound No. 14, 3-(3-fluoro-4-methoxyphenyl)-1-(1,2,3,4-tetrahydronaphthalen-2-yl)-1H-pyrazolo[3,4-d]pyrimidin-4-amine], the IC50 was 7.9 nM in experiment [1] and 217 nM in experiment [2].

As to `Nc1ncnc2c1c(-c1ccc3cn[nH]c3c1)nn2C1CCc2ccccc2C1` (racemic) [compound 9, 3-(1H-indazol-6-yl)-1-(1,2,3,4-tetrahydronaphthalen-2-yl)-1H-pyrazolo[3,4-d]pyrimidin-4-amine], in experiment [1], the “PI3Kδ @ 0.1 μM (% Inh)” value stood at 44.86 % Inh. For the same molecule, in experiment [2], the “BTK @ 0.1 μM (% Inh)” value came to 15.85 % Inh.

Consider `Nc1ncnc2c1c(-c1ccc(F)cc1)nn2C1CCc2ccccc2C1` (racemic) [compound 13, 3-(4-fluorophenyl)-1-(1,2,3,4-tetrahydronaphthalen-2-yl)-1H-pyrazolo[3,4-d]pyrimidin-4-amine], for which the IC50 was 2390 nM in experiment [1] and 69.8 nM in experiment [2].

As for `Nc1ncnc2c1c(-c1cnc3[nH]ccc3c1)nn2C1CCc2ccccc2C1` (racemic) [compound 16, 3-(1H-pyrrolo[2,3-b]pyridin-5-yl)-1-(1,2,3,4-tetrahydronaphthalen-2-yl)-1H-pyrazolo[3,4-d]pyrimidin-4-amine], the “PI3Kδ @ 0.1 μM (% Inh)” value in experiment [1] came out at 51.94 % Inh. In experiment [2], the “BTK @ 0.1 μM (% Inh)” value is on record as 24.0 % Inh.

Turning to `Nc1ncnc2c1c(-c1cn[nH]c1)nn2C1CCc2ccccc2C1` (racemic) [compound 20, 3-(1H-pyrazol-4-yl)-1-(1,2,3,4-tetrahydronaphthalen-2-yl)-1H-pyrazolo[3,4-d]pyrimidin-4-amine], the values for the IC50 in experiment [1] and in experiment [2] were 157 nM and 2020 nM, respectively.

Consider `Nc1ncnc2c1c(-c1ccc(O)cc1)nn2C1CCc2ccccc2C1` (racemic) [compound 21, 4-(4-amino-1-(1,2,3,4-tetrahydronaphthalen-2-yl)-1H-pyrazolo[3,4-d]pyrimidin-3-yl)phenol], for which the IC50 amounted to 104 nM in experiment [1] and 192 nM in experiment [2].

Regarding `COc1ccc(-c2nn(C3CCc4ccccc4C3)c3ncnc(N)c23)cc1F` (single isomer, unassigned) [Compound No. 14a, 3-(3-fluoro-4-methoxyphenyl)-1-(1,2,3,4-tetrahydronaphthalen-2-yl)-1H-pyrazolo[3,4-d]pyrimidin-4-amine], the figures for the concentration for half-maximal inhibition (IC50) in experiment [1] and in experiment [2] were 102 nM and 784 nM, respectively.

Consider `Nc1ncnc2c1c(/C=C/CO)nn2C1Cc2ccccc2C1` (single isomer, unassigned) [Compound No. 64, (2E)-3-[4-amino-1-(2,3-dihydro-1H-inden-2-yl)-1H-pyrazolo[3,4-d]pyrimidin-3-yl]prop-2-en-1-ol], for which, in experiment [1], the “PI3Kδ @ 0.1 μM (% Inh)” value is listed as 0.0 % Inh and the “PI3Kδ @ 1 μM (% Inh)” value turned out to be 4.07 % Inh. Besides, in experiment [2], the “BTK @ 0.1 μM (% Inh)” value came to 2.74 % Inh and the “BTK @ 1 μM (% Inh)” value was 5.76 % Inh.

With `Nc1ncnc2c1c(CCCO)nn2C1Cc2ccccc2C1` (single isomer, unassigned) [Compound No. 65, 3-[4-amino-1-(2,3-dihydro-1H-inden-2-yl)-1H-pyrazolo[3,4-d]pyrimidin-3-yl]propan-1-ol], in experiment [1], the “PI3Kδ @ 0.1 μM (% Inh)” value is on record as −4.81 % Inh and the “PI3Kδ @ 1 μM (% Inh)” value is recorded as 11.18 % Inh. In experiment [2], the “BTK @ 0.1 μM (% Inh)” value worked out at 4.02 % Inh and the “BTK @ 1 μM (% Inh)” value came out at 7.69 % Inh.

For the molecule `Nc1ncnc2c1c(-c1ccc(Br)c(O)c1)nn2C1CCc2ccccc21` (stereo not shown) [36b, 5-[4-amino-1-(2,3-dihydro-1H-inden-1-yl)-1H-pyrazolo[3,4-d]pyrimidin-3-yl]-2-bromophenol], in experiment [1], the “PI3Kδ @ 0.1 μM (% Inh)” value came out at 40.07 % Inh, the “PI3Kδ @ 1 μM (% Inh)” value turned out to be 79.26 % Inh and half-maximal inhibition (IC50) required 155 nM. Further, in experiment [2], the “BTK @ 0.1 μM (% Inh)” value turned out to be 33.82 % Inh; the “BTK @ 1 μM (% Inh)” value amounted to 76.93 % Inh; the midpoint of inhibition, the IC50, lay at 123 nM.

Turning to `COc1ccc(-c2nn(C3Cc4ccccc4C3)c3ncnc(N)c23)cc1OC` [Compound No. 35, 1-(2,3-dihydro-1H-inden-2-yl)-3-(3,4-dimethoxyphenyl)-1H-pyrazolo[3,4-d]pyrimidin-4-amine], the “BTK @ 0.1 μM (% Inh)” value in experiment [2] worked out at 29.9 % Inh.

Consider `Nc1ncnc2c1c(-c1ccc3cc[nH]c3c1)nn2C1Cc2ccccc2C1` [Compound No. 39, 1-(2,3-dihydro-1H-inden-2-yl)-3-(1H-indol-6-yl)-1H-pyrazolo[3,4-d]pyrimidin-4-amine], for which, in experiment [1], the “PI3Kδ @ 0.1 μM (% Inh)” value is 24.12 % Inh and 30.2 % Inh; the “PI3Kδ @ 1 μM (% Inh)” value was 67.63 % Inh. Also, in experiment [2], the “BTK @ 0.1 μM (% Inh)” value was 45.81 % Inh and 37.23 % Inh; the “BTK @ 1 μM (% Inh)” value came to 87.24 % Inh.

`Nc1ncnc2c1c(-c1cccc(O)c1)nn2C1Cc2ccccc2C1` [Compound No. 40, 3-[4-amino-1-(2,3-dihydro-1H-inden-2-yl)-1H-pyrazolo[3,4-d]pyrimidin-3-yl]phenol]: the “PI3Kδ @ 0.1 μM (% Inh)” value in experiment [1] turned out to be 41.21 % Inh. Besides, the “BTK @ 0.1 μM (% Inh)” value in experiment [2] is 66.35 % Inh.

As for `Nc1ncnc2c1c(-c1ccc(C(F)(F)F)c(OCc3ccccc3)c1)nn2C1Cc2ccccc2C1` [Compound No. 43, 3-[3-(benzyloxy)-4-(trifluoromethyl)phenyl]-1-(2,3-dihydro-1H-inden-2-yl)-1H-pyrazolo[3,4-d]pyrimidin-4-amine], in experiment [1], the “PI3Kδ @ 0.1 μM (% Inh)” value came to 11.31 % Inh and the “PI3Kδ @ 1 μM (% Inh)” value was 11.07 % Inh. Moreover, in experiment [2], the “BTK @ 0.1 μM (% Inh)” value was 3.54 % Inh and the “BTK @ 1 μM (% Inh)” value was −0.8 % Inh.

With `Nc1cccc(-c2nn(C3Cc4ccccc4C3)c3ncnc(N)c23)c1` [Compound No. 45, 3-(3-aminophenyl)-1-(2,3-dihydro-1H-inden-2-yl)-1H-pyrazolo[3,4-d]pyrimidin-4-amine], in experiment [1], the “PI3Kδ @ 0.1 μM (% Inh)” value amounted to 12.84 % Inh and the “PI3Kδ @ 1 μM (% Inh)” value turned out to be 44.54 % Inh. In experiment [2], the “BTK @ 0.1 μM (% Inh)” value is 49.32 % Inh and the “BTK @ 1 μM (% Inh)” value is listed as 87.47 % Inh.

In the case of `Cc1ccc(-c2nn(C3Cc4ccccc4C3)c3ncnc(N)c23)cc1N` [Compound No. 46, 3-(3-amino-4-methylphenyl)-1-(2,3-dihydro-1H-inden-2-yl)-1H-pyrazolo[3,4-d]pyrimidin-4-amine], in experiment [1], the “PI3Kδ @ 0.1 μM (% Inh)” value was 30.55 % Inh, the “PI3Kδ @ 1 μM (% Inh)” value is reported as 67.34 % Inh and the IC50 turned out to be 1290 nM. For the same molecule, in experiment [2], the “BTK @ 0.1 μM (% Inh)” value is 85.71 % Inh, the “BTK @ 1 μM (% Inh)” value is recorded as 96.3 % Inh and inhibition was half-maximal at 21.2 nM (IC50).

For the molecule `Nc1ncnc2c1c(-c1ccc3[nH]cnc3c1)nn2C1Cc2ccccc2C1` [Compound No. 47, 3-(1H-1,3-benzodiazol-5-yl)-1-(2,3-dihydro-1H-inden-2-yl)-1H-pyrazolo[3,4-d]pyrimidin-4-amine], in experiment [1], the “PI3Kδ @ 0.1 μM (% Inh)” value was determined as 78.41 % Inh and the “PI3Kδ @ 1 μM (% Inh)” value is 100.0 % Inh. Further, in experiment [2], the “BTK @ 0.1 μM (% Inh)” value is 9.61 % Inh and the “BTK @ 1 μM (% Inh)” value amounted to 48.47 % Inh.

As for `Nc1ncnc2c1c(N1CCOCC1)nn2C1Cc2ccccc2C1` [Compound No. 48, 1-(2,3-dihydro-1H-inden-2-yl)-3-(morpholin-4-yl)-1H-pyrazolo[3,4-d]pyrimidin-4-amine], in experiment [1], the “PI3Kδ @ 0.1 μM (% Inh)” value came out at 7.12 % Inh and the “PI3Kδ @ 1 μM (% Inh)” value was found to be 11.95 % Inh. In addition, in experiment [2], the “BTK @ 0.1 μM (% Inh)” value worked out at 1.56 % Inh and the “BTK @ 1 μM (% Inh)” value worked out at 16.21 % Inh.

As to `COc1cc(-c2nn(C3Cc4ccccc4C3)c3ncnc(N)c23)ccn1` [Compound No. 50, 1-(2,3-dihydro-1H-inden-2-yl)-3-(2-methoxypyridin-4-yl)-1H-pyrazolo[3,4-d]pyrimidin-4-amine], in experiment [1], the “PI3Kδ @ 0.1 μM (% Inh)” value is given as 39.05 % Inh; the “PI3Kδ @ 1 μM (% Inh)” value is 79.98 % Inh; the midpoint of inhibition, the IC50, lay at 362 nM. Moreover, in experiment [2], the “BTK @ 0.1 μM (% Inh)” value worked out at 21.32 % Inh, the “BTK @ 1 μM (% Inh)” value is 66.77 % Inh and it took 1260 nM to reach half-maximal inhibition (IC50).

For `Nc1ncnc2c1c(-c1ccnc(O)c1)nn2C1Cc2ccccc2C1` [Compound No. 52, 4-[4-amino-1-(2,3-dihydro-1H-inden-2-yl)-1H-pyrazolo[3,4-d]pyrimidin-3-yl]pyridin-2-ol], in experiment [1], the “PI3Kδ @ 0.1 μM (% Inh)” value is recorded as 6.493 % Inh and the “PI3Kδ @ 1 μM (% Inh)” value is 37.25 % Inh. Further, in experiment [2], the “BTK @ 0.1 μM (% Inh)” value came to 9.25 % Inh and the “BTK @ 1 μM (% Inh)” value is reported as 24.21 % Inh.

The values above are taken from patent US20210317140A1, “Heterocyclic Compounds and Methods of Use” (MEDIVATION TECHNOLOGIES, INC, priority 2013, published 2021).
